Results: patent publication US8039488B2, “Methods and compositions for inhibition of angiogenesis” (Children's Medical Center Corporation, priority 1996, dated 2011)

Columns and labels:
[1] = test system: bFGF induced corneal neovascularization; assay: Rabbit cornea angiogenesis assay; assay type: in vivo
Description: (§1) Pellets for implantation into rabbit corneas were made by mixing 110 μl of saline containing 12 μg of recombinant bFGF (Takeda Pharmaceuticals-Japan) with 40 mg of sucralfate (Bukh Meditec-Denmark); this suspension was added to 80 μl of 12% hydron (Interferon Sciences) in ethanol. 10 μl aliquots of this mixture was then pipetted onto Teflon pegs and allowed to dry producing approximately 17 pellets. A pellet was implanted into corneal micropockets of each eye of an anesthetized female New Zealand white rabbit, 2 mm from the limbus followed by topical application of erythromycin ointment onto the surface of the cornea. The animals were fed daily from 2 days post-implantation by gastric lavage with either drug suspended in 0.5% carboxymethyl cellulose or 0.5% carboxymethyl cellulose alone. Thalidomide was purchased from Andrulus Pharmaceutical (Maryland) and the EM-12 and Supidimide were kindly provided by Grunenthal GMBH (Germany). The animals were examined with a slit lamp every other day in a masked manner by the same corneal specialist. The area of corneal neovascularization was determined by measuring with a reticule the vessel length (L) from the limbus and the number of clock hours (C) of limbus involved. A formula was used to determine the area of a circular band segment: C/12*3.1416 [r^2−(r−L)^2] where r=6 mm the measured radius of the rabbit cornea.
Pellets containing bFGF and sucralfate were implanted into micropockets of both corneas of rabbits according to Example II. Vessel ingrowth into clear cornea from the limbus was first noted on day 2 and treatments (200 mg/kg orally) were begun on this day. The area of corneal neovascularization was measured from day 4 through day 12. Day 8 measurements were used for comparison between groups. […] Statistical analysis was performed with ANOVA with ranked data to account for interexperimental variation and to guard against a non-normal distribution of data (i.e. outliers) by utilizing a nonparametric method.

[2] = test system: chick embryo chorioallantoic membrane; assay: Chick embryo chorioallantoic membrane (CAM) assay; assay type: in vivo; conditions: examined 48 hours after implantation
Text: The chick embryo chorioallantoic membrane assay described by Crum et al., Science 230:1375 et seq. […] See also, U.S. Pat. No. 5,001,116, hereby incorporated by reference, which describes the CAM assay at col. 7 of the patent. Briefly, fertilized chick embryos were removed from their shell on day 3 or 4, and a methylcellulose disc containing the compound was implanted on the chorioallantoic membrane.

[3] = test system: bFGF induced angiogenesis; assay: Angiogenesis in the eye, assay described in Example 2, bFGF; assay type: in vivo, rabbit
Description: (§2) Angiogenesis in the eye, in the assay described in Example 2, is produced by the presence of bFGF (basic fibroblastic growth factor) and VEGF (vascular endothelial cell growth factor).
as §1

[4] = test system: VEGF induced angiogenesis; assay: Angiogenesis in the eye, assay described in Example 2, VEGF; assay type: in vivo, rabbit
Description: as §2, §1

[5] = test system: bFGF induced angiogenesis; assay: Mouse corneal micropocket assay, bFGF pellets; assay type: in vivo, mice; conditions: for inhibition in vivo at 100 mg/kg: dose 100 mg/kg once daily, area of corneal neovascularization vs controls; for inhibition in vivo at 200 mg/kg: dose 200 mg/kg once daily; for inhibition of bFGF induced neovascularization: dose not given
Description: (§3) Six to eight week old C57B 16 male mice were obtained from Jackson Laboratories, MA. The mice were anesthetized, and 0.4×0.4 mm pockets were made in the stroma of the mouse cornea adjacent to the limbus. Pellets containing 80 ng of either bFGF or VEGF were implanted in the pellets. The pellets containing bFGF were implanted 1.0-1.2 mm from the limbal vessels, while the pellets containing VEGF were implanted 0.5-0.7 mm from the limbal vessels. Erythromycin was then topically applied.
(§4) The vascular response to the pellets was measured by maximal vessel length and number of clock hours of neovascularization 5 days after implantation of the bFGF pellets and 6 days after implantation of the VEGF pellets. The area of corneal neovascularization was calculated using the following formula which best approximated the area of neovascularization: Area (mm^2)=[π×clock hours×length (mm)×0.2 (mm)].
(§5) Inhibitory effect is expressed in percentage representing the area of corneal neovascularization by either bFGF or VEGF compared to controls (n=8/experiment) of the experiments in which that particular drug was tested. N=the number of eyes that were tested and drugs were given once daily either sc, ip or oral as described.
as §3, with “implanted.” for “implanted in the pellets.”
as §4, with “The mice were then treated with thalidomide, indomethacin, sulindac, or combinations of thalidomide with either indomethacin or sulindac. The vascular” for “The vascular”, “which best approximates the area” for “which best approximated the area”
Six to eight week old C57B16 male mice, obtained from Jackson Laboratories, MA, were anesthetized, and 0.4×0.4 mm pockets were made in the stroma of the mouse cornea adjacent to the limbus. Pellets containing 80 ng of bFGF were implanted 1.0-1.2 mm from the limbal vessels. Erythromycin was then topically applied.
(§6) The mice were then treated with sulindac, or one of the sulindac derivatives, sulindac sulfone or sulindac sulfide. The vascular response to the pellets was measured by maximal vessel length and number of clock hours of neovascularization 5 days after implantation of the bFGF pellets. The area of corneal neovascularization was calculated using the following formula which best approximates the area of neovascularization: Area (mm^2)=[π×clock hours×length (mm)×0.2 (mm)].
Inhibitory effect is expressed in percentage representing the area of corneal neovascularization by bFGF compared to controls (n=8/experiment. N=the number of eyes that were tested and drugs were given once daily either sc, ip or oral as described.

[6] = test system: bFGF induced corneal neovascularization; assay: Rabbit cornea angiogenesis assay; assay type: in vivo; conditions: 100 mg/kg/day
[7] = test system: VEGF induced angiogenesis; assay: Mouse corneal micropocket assay, VEGF pellets; assay type: in vivo, mice; conditions: 6 days after implantation
Description: as §3, §4, §5
as §3, with “implanted.” for “implanted in the pellets.”
as §6, with “with thalidomide, indomethacin,” for “with”, “combinations” for “one”, “thalidomide with either indomethacin” for “the sulindac derivatives, sulindac sulfone”, “sulindac.” for “sulindac sulfide.”, “bFGF pellets and 6 days after implantation of the VEGF” for “bFGF”

V2-carcinoma = V2-carcinoma tumor assay in rabbits; assay type: in vivo, rabbit; conditions: 17 days after start of treatment
Description: New Zealand White female rabbits, weighing approximately 1.5 kg, obtained from Charles River, Mass., were used for propagating the V2-carcinoma. This tumor originates from a Shope virus-induced papilloma. Small 0.5×0.5 cm pieces were implanted intramuscularly in the right thigh. Treatment with 200 mg/kg/day thalidomide (n=14), 60 mg/kg/day sulindac (n=5), or a combination of thalidomide and sulindac (n=10) was started at day 10 after tumor implantation, when the mean volume of the tumor was 6 cm^3. The control animals (n=13) were treated with methylcellulose. […] The data were collected in 3 separate experiments and each bar represents the standard error of the mean.

Crohn's disease = assay: Treatment of a patient with Crohn's disease; assay type: in vivo, human; conditions: 100 mg twice a day orally, one week
Description: A patient with Crohn's disease was treated using the methods of the present invention. […] Thalidomide was orally administered to them at a dosage of 100 mg twice a day.

[8] = Mus musculus, 120 h, 5 days after implantation
[9] = Mus musculus, 120 h, dose 25 mg/kg once daily, 5 days after implantation

## O=C(O)CCC(C(=O)O)N1C(=O)c2ccccc2C1=O (racemic) [Phthaloyl glutamic acid, N-phthaloyl-DL-glutamic acid]
[1]; 200 mg/kg
  inhibition of angiogenesis in the rabbit cornea assay: 29%
[1]; 200 mg/kg orally
  inhibitory activity on corneal neovascularization, in words: weaker inhibitory effects than thalidomide
[2]
  CAM assay result (avascular zone around the methylcellulose disc): avascular zone with a mild scar

## CO[C@@H]1[C@H](OC(=O)NC(=O)CCl)CC[C@]2(CO2)[C@H]1[C@@]1(C)O[C@@H]1CC=C(C)C [AGM 1470]
[3]; dose 30 mg/kg qod
  % Inhibition of bFGF induced angiogenesis: 48%

## CC(=O)Nc1ccc(O)cc1 [Acetaminophen]
[3]; dose 100 mg/kg
  % Inhibition of bFGF induced angiogenesis: 0%
[4]; dose 100 mg/kg
  % Inhibition of VEGF induced angiogenesis: 0%
[5]; [8]
  inhibition in vivo at 100 mg/kg: 0%

## CC(=O)Oc1ccccc1C(=O)O [Aspirin, aspirin]
[3]; dose 100 mg/kg
  % Inhibition of bFGF induced angiogenesis: 8%

## O=C1CCC(N2Cc3ccccc3C2=O)C(=O)N1 (stereo not shown) [EM-12]
[6]
  % inhibition in the rabbit cornea assay: 21%
[1]; 200 mg/kg orally, day 8
  median inhibition of the area of vascularized cornea: 42%
[1]; 200 mg/kg/day
  % inhibition in the rabbit cornea assay: 43%

## O=c1ccc2cc(O)c(O)cc2o1 [Esculetin, esculetin]
[5]; [8]
  inhibition in vivo at 200 mg/kg: 15%

## C[C@]12CCC(=O)C=C1CC[C@@H]1[C@@H]2[C@@H](O)C[C@@]2(C)[C@H]1CC[C@]2(O)C(=O)CO [Hydrocortisone, hydrocortisone]
[3]; dose 20 mg/kg
  % Inhibition of bFGF induced angiogenesis: 50%
[4]; dose 20 mg/kg
  % Inhibition of VEGF induced angiogenesis: 40%

## CC(C)Cc1ccc(C(C)C(=O)O)cc1 (stereo not shown) [Ibuprofen, ibuprofen]
[3]; dose 20 mg/kg
  % Inhibition of bFGF induced angiogenesis: 7%
[4]; dose 20 mg/kg
  % Inhibition of VEGF induced angiogenesis: 11%
[7]; dose 25 mg/kg once daily
  % Inhibition of VEGF induced angiogenesis: 8%
[5]; [9]
  inhibition in vivo at 25 mg/kg: 6%

## COc1ccc2c(c1)c(CC(=O)O)c(C)n2C(=O)c1ccc(Cl)cc1 [Indomethacin, indomethacin]
[7]; dose 5 mg/kg once daily
  % Inhibition of VEGF induced angiogenesis: 61%
[5]; Mus musculus, 120 h, dose 5 mg/kg once daily, 5 days after implantation
  inhibition in vivo at 5 mg/kg: 59%

## C[C@H](Cc1ccc(O)c(O)c1)[C@@H](C)Cc1ccc(O)c(O)c1 [NDGA, nordihydroguiaretic acid]
[5]; [9]
  inhibition in vivo at 25 mg/kg: 30%

## CS(=O)(=O)Nc1ccc([N+](=O)[O-])cc1OC1CCCCC1 [NS-398]
[5]
  inhibition of bFGF induced neovascularization: 25%

## O=C1CCC(N2C(=O)c3ccccc3C2=O)C(=O)O1 (stereo not shown) [PGA]
[1]; 200 mg/kg orally
  inhibitory activity on corneal neovascularization, in words: weaker inhibitory effects than thalidomide

## O=C1CCN(c2ccccc2)N1 [Phenidone, phenidone]
[5]; [8]
  inhibition in vivo at 100 mg/kg: 17%

## O=c1c(O)c(-c2ccc(O)c(O)c2)oc2cc(O)cc(O)c12 [Quercetin, quercetin]
[5]; Mus musculus, 120 h, dose 300 mg/kg once daily, 5 days after implantation
  inhibition in vivo at 300 mg/kg: 18%

## CCCC(C(=O)OCCN(CC)CC)(c1ccccc1)c1ccccc1.Cl [SKF525AHCL]
[5]
  inhibition of bFGF induced neovascularization: 25%

## CSc1ccc(/C=C2/C(C)=C(CC(=O)O)c3cc(F)ccc32)cc1 [Sulindac sulfide, sulindac sulfide]
[5]; [9]
  inhibition in vivo at 25 mg/kg: 31%
[5]; dose 50 mg/kg once daily, bFGF pellets, 5 days after implantation
  % inhibition: 34%
[5]
  inhibition of bFGF induced neovascularization: 34%

## CC1=C(CC(=O)O)c2cc(F)ccc2/C1=C\c1ccc(S(C)(=O)=O)cc1 [Sulindac sulfone, sulindac sulfone]
[5]; dose 25 mg/kg once daily, 5 days after implantation
  % Inhibition of bFGF induced angiogenesis: 31%
[5]
  inhibition of bFGF induced neovascularization: 31%

## CC1=C(CC(=O)O)c2cc(F)ccc2/C1=C\c1ccc([S+](C)[O-])cc1 (stereo not shown) [Sulindac, (Z)-5-Fluoro-2-methyl-1-[[4-(methyl-sulfinyl)phenyl]methylene]-1H-indene-3-acetic acid]
[3]; dose 25 mg/kg
  % Inhibition of bFGF induced angiogenesis: 52%
[4]; dose 25 mg/kg
  % Inhibition of VEGF induced angiogenesis: 54%
[7]; dose 25 mg/kg once daily
  % Inhibition of VEGF induced angiogenesis: 55%
V2-carcinoma; 60 mg/kg/day oral
  inhibition of tumor growth: 35%
[5]; [9]
  inhibition in vivo at 25 mg/kg: 50%

## O=C1CCC(N2C(=O)c3ccccc3S2(=O)=O)C(=O)N1 (stereo not shown) [Supidimide]
[1]; 200 mg/kg orally
  inhibitory activity on corneal neovascularization, in words: no activity
[1]; 200 mg/kg orally, day 8
  area of corneal neovascularization, % of control: 107 % of control

## O=C1CCC(N2C(=O)c3ccccc3C2=O)C(=O)N1 (stereo not shown) [Thalidomide, thalidomide]
[3]; dose 200 mg/kg
  % Inhibition of bFGF induced angiogenesis: 42%
[4]; dose 200 mg/kg
  % Inhibition of VEGF induced angiogenesis: 44%
[1]; 200 mg/kg orally
  density of vessel ingrowth: markedly reduced
  sedation of the rabbits: did not demonstrate obvious sedation
[1]; 200 mg/kg orally (FIG. 7)
  onset of inhibition of angiogenesis: after only two doses
[1]; 200 mg/kg orally, day 8
  inhibition of the area of vascularized cornea, range in three experiments: 30-51%
  median inhibition of the area of vascularized cornea: 36%
Crohn's disease
  gastrointestinal symptoms, including diarrhea and cramping: lessened
  skin lesion on the lower leg: resolved
[7]; dose 200 mg/kg once daily
  % Inhibition of VEGF induced angiogenesis: 40%
V2-carcinoma; 200 mg/kg/day oral
  inhibition of tumor growth: 55%
[5]; [8]
  inhibition in vivo at 200 mg/kg: 41%

## O=C(O)c1cc2cc(Cc3cccnc3)ccc2o1 [furegrelate sodium]
[5]
  inhibition of bFGF induced neovascularization: 22%

## carbomethylheptyl imidazole
[5]
  inhibition of bFGF induced neovascularization: 32%
